In patent publication US12633373B2, “Systems and methods to predict structures and properties of biomolecule-ligand complexes and uses thereof” (The Board of Trustees of the Leland Stanford Junior …, priority 2020, dated 2026):

Assays:
[1] = tested on: D2 dopamine receptor (D2R) Val91 and Trp100 mutants; experiment: Mutagenesis of Val91 and Trp100 of D2R, ligand affinity; conditions: mutation of Val91 and Trp100, top of the ligand binding pocket
Description: Mutations to several residues surrounding the top and bottom of the binding pocket were also considered. Unlike Glide, the embodiment predicts that all four ligands will position a fluorobenzene ring at the bottom of the binding pocket, packing favorably against Trp386 (W386). […] At the top of the ligand binding pocket, near Val91 and Trp100, the embodiment predicts that the pimozide and benperidol will place identical functional groups that differ somewhat from those of spiperone and mespiperone.

[2] = tested on: D2 dopamine receptor (D2R) S193 mutants (Val, Leu, Ala); experiment: Mutagenesis of Ser193 (S193) of D2R, ligand affinity; type: binding; conditions: S193 mutated to a larger residue (Val or Leu)
Description: (§1) To test the embodiment's predictions, mutagenesis experiments were designed.

[3] = target: D2 dopamine receptor (D2R) S193 mutants (Val, Leu, Ala) (Homo sapiens, UniProt P14416, S193A); experiment: as above; type: binding; conditions: S193 mutated to a smaller residue (Ala)
Sequence of D2 dopamine receptor (D2R) S193 mutants (Val, Leu, Ala) (Homo sapiens, UniProt P14416, S193A) (P14416 whole entry S193A): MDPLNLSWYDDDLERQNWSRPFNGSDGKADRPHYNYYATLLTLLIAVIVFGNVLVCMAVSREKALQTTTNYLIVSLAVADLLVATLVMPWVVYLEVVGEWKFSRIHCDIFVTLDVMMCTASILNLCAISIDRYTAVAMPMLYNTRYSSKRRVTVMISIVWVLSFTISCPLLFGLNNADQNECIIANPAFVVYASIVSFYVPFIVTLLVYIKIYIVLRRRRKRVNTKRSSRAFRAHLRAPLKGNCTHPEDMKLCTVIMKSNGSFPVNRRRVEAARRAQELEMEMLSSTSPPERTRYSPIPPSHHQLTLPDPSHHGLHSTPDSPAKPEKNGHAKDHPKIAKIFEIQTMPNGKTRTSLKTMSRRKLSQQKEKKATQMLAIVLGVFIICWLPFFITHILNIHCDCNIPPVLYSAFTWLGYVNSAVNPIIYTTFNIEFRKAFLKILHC
Description: as §1

`O=C(CCCN1CCC(n2c(O)nc3ccccc32)CC1)c1ccc(F)cc1` [benperidol] was tested, and the “effect of mutation on ligand” value [1] was “slightly differently from spiperone and mespiperone”, the “change of affinity on mutation” value [2] was “increases” and the “change of affinity on mutation” value [3] was “not observed”.
